# According to patent publication US9056111B1, “Selective efflux inhibitors and related pharmaceutical compositions and methods of treatment” (STC.UNM, priority 2011, dated 2015):
# “And” between values parts separate entries of the source, which are not always exact repeats. Equal entries are not always repeated. Where two headings read alike, the source gives them in different places.
# How the values were obtained:
# [1] = tested on: Ig-MXP3 cells; experiment: Direct cytotoxicity (Toxic Dose 50) without chemotherapeutic; type: cell-based
# [2] = tested on: Jurkat-DNR cells; experiment: as above
# Description: Cells (ABCB1, Jurkat-DNR or ABCG2 Ig-MXP3) are incubated with the test compound (3 order of magnitude concentration range) over a 3-day and 7-day period in the presence of the inhibitor and chemotherapeutic (ABCB1, DNR or ABCG2 MTX), such that a cell concentration of at least 1×10^5 cells/mL is maintained. Cell viability is determined by trypan blue staining and enumeration under light microscopy. […] A chemoreversal index (Chemoreversal 50, CR50) is determined from the viability assessment. Using a similar approach, a direct cytotoxicity index (Toxic Dose 50, TD50) is determined by assessment of cell death of cells grown in media alone.
# Cells (ABCB1, Jurkat-DNR or ABCG2 Ig-MXP3) were incubated with the test compound in a 3 order of magnitude concentration range over three and seven day periods in the presence of the inhibitor and chemotherapeutic (ABCB1, 100 nM DNR or ABCG2 30 nM MTX), such that a cell concentration of at least 1×10^5 cells mL^−1 was maintained. Cell viability was determined by trypan blue staining and enumeration under light microscopy. […] A chemoreversal index (Chemoreversal 50, CR50) was determined from the viability assessment. Using a similar approach, a direct cytotoxicity index (Toxic Dose 50, TD50) was determined by assessment of cell death of cells grown in media alone.
# [3] = target: T1, ABCG2 (Homo sapiens, UniProt Q9UNQ0); experiment: JC-1 efflux inhibition dose response, flow cytometry, Ig-MXP3 cells; conditions: for ~Fold G2 Selective (B1/G2): quotient of average ABCB1 IC50 and average ABCG2 IC50, efflux assay
# T1 sequence (Q9UNQ0 1-655): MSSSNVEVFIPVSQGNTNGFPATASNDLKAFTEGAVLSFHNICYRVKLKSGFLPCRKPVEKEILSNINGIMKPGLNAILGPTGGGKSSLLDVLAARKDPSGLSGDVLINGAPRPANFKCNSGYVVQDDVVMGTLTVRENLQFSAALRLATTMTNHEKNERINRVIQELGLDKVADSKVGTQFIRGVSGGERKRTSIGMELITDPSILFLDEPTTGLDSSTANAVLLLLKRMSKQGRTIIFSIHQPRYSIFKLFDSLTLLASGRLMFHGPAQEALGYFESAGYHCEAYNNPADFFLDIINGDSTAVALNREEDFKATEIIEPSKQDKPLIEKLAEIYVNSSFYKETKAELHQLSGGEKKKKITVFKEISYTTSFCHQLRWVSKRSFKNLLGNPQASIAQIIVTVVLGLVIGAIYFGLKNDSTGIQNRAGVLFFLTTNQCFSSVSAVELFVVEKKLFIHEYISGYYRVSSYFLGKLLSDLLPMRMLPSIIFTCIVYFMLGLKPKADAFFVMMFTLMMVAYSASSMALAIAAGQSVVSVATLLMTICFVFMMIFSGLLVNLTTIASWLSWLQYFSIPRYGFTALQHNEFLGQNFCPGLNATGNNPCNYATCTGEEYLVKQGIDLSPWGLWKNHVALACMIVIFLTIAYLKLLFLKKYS
# Description: (§1) The HyperCyt® high throughput flow cytometry platform (IntelliCyt™, Albuquerque, N. Mex.) was used to sequentially sample cells from 384-well microplates (2 μL/sample) for flow cytometer presentation at a rate of 40 samples per minute.^62-63 Flow cytometric analysis was performed on a CyAn™ flow cytometer (Beckman-Coulter, Fullerton, Calif.). The resulting time-gated data files were analyzed with HyperView® software to determine compound activity in each well. Inhibition response curves were fitted by Prism® software (GraphPad Software, Inc., San Diego, Calif.) using nonlinear least-squares regression in a sigmoidal dose response model with variable slope, also known as the four-parameter logistic equation. This type of time-gated flow cytometric data analysis was described in detail for a previous ABC transporter screen from our group.^56
# (§2) The assay provider's ABCB1 over-expressing Jurkat-DNR cell line is used for confirmatory follow up instead of the CCRF-Adr cells. Each cell line (Jurkat-DNR and Ig-MXP3) is run separately against all compounds (no differential cell staining) in dose response. The assay is conducted in 384-well format in a total volume of 15.1 μL. Cells and reagents are added sequentially as follows: 1) PBS buffer (5 μL/well); 2) test compound (100 nL/well); 3) drug-resistant cells (10 μL/well) pre-stained with the JC-1 substrate at 1 μM. […] Nicardipine (50 μM) is added to each plate as a pan-inhibition positive control.
# (§3) Each cell line (Jurkat-DNR and Ig-MXP3) was run separately against all compounds (no differential cell staining) in dose-response. The protocol differed from the single point screen as describe here. Cells and reagents were added sequentially as follows: 1) PBS buffer (5 μL per well); 2) test compound (100 nL per well); 3) drug-resistant cells (10 μL, per well) pre-exposed to the JC-1 substrate at 1 μM just prior to the well addition.
# [4] = tested on: ABCB1 over-expressing Jurkat-DNR cells; experiment: Chemoreversal assay: potentiation of daunorubicin (DNR) killing; type: cell-based; conditions: constant 100 nM DNR, varied inhibitor dose
# [5] = target: ABCB1 (Homo sapiens, UniProt P08183); experiment: JC-1 efflux inhibition dose response, flow cytometry, Jurkat-DNR cells; conditions: for IC50: Jurkat-DNR cells over-expressing ABCB1, averages of two to four replicates
# Description: as §1
# The assay provider's ABCB1 over-expressing Jurkat-DNR cell line is used for confirmatory follow up instead of the CCRF-Adr cells. Each cell line (Jurkat-DNR and Ig-MXP3) is run separately against all compounds (no differential cell staining) in dose response. The assay is conducted in 384-well format in a total volume of 15.1 μL. Cells and reagents are added sequentially as follows: 1) PBS buffer (5 μL/well); 2) test compound (100 nL/well); 3) drug-resistant cells (10 μL/well) pre-stained with the JC-1 substrate at 1 μM. Final in-well concentrations of test compound range from 50 μM to 69 nM over an 18 point dose response and the cell concentration is 1×10^6 cells/mL. Nicardipine (50 μM) is added to each plate as a pan-inhibition positive control. The plate is rotated end-over-end at 4 RPM and 25° C. for 30 minutes and then cell samples are analyzed and flow cytometric data of light scatter and fluorescence emission at 530+/−20 nm (488 nm excitation, FL1) are collected.
# Each cell line (Jurkat-DNR and Ig-MXP3) was run separately against all compounds (no differential cell staining) in dose-response. The protocol differed from the single point screen as describe here. Cells and reagents were added sequentially as follows: 1) PBS buffer (5 μL per well); 2) test compound (100 nL per well); 3) drug-resistant cells (10 μL, per well) pre-exposed to the JC-1 substrate at 1 μM just prior to the well addition. Final in-well concentrations of test compound ranged from 50 μM to 69 nM over an 18 point dose-response and the cell concentration was 1×10^6 cells mL^−1.
# [6] = tested on: ABCG2 over-expressing Ig-MXP3 cells; experiment: Chemoreversal assay: potentiation of mitoxantrone (MTX) killing; type: cell-based; conditions: Ig-MXP3 cells, constant 30 nM MTX, varied inhibitor dose, read-out: CR50 ABCG2
# [7] = target: T2, ABCB1 / ABCG2 (Homo sapiens, UniProt Q9UNQ0); experiment: JC-1 efflux inhibition dose response, flow cytometry, Ig-MXP3 cells; conditions: human, probe JC-1 (1 µM), ~Fold G2 Selective (B1/G2), quotient of average ABCB1 IC50 and average ABCG2 IC50, efflux assay
# T2 sequence (Q9UNQ0 1-655): T1 sequence (Q9UNQ0 1-655)
# Description: as §1, §2, §3
# [8] = Ig-MXP3 cells, inhibitor without chemotherapeutic
# [9] = Jurkat-DNR cells, inhibitor without chemotherapeutic
# [10] = IC50 ABCB1 (efflux inhibition of JC-1 substrate)
# [11] = read-out: IC50 ABCB1 (efflux inhibition of JC-1 substrate)
# [12] = read-out: IC50 ABCG2 (efflux inhibition of JC-1 substrate), Ig-MXP3 cells over-expressing ABCG2, averages of two to four replicates
# Sequence of ABCB1 (P08183 whole entry): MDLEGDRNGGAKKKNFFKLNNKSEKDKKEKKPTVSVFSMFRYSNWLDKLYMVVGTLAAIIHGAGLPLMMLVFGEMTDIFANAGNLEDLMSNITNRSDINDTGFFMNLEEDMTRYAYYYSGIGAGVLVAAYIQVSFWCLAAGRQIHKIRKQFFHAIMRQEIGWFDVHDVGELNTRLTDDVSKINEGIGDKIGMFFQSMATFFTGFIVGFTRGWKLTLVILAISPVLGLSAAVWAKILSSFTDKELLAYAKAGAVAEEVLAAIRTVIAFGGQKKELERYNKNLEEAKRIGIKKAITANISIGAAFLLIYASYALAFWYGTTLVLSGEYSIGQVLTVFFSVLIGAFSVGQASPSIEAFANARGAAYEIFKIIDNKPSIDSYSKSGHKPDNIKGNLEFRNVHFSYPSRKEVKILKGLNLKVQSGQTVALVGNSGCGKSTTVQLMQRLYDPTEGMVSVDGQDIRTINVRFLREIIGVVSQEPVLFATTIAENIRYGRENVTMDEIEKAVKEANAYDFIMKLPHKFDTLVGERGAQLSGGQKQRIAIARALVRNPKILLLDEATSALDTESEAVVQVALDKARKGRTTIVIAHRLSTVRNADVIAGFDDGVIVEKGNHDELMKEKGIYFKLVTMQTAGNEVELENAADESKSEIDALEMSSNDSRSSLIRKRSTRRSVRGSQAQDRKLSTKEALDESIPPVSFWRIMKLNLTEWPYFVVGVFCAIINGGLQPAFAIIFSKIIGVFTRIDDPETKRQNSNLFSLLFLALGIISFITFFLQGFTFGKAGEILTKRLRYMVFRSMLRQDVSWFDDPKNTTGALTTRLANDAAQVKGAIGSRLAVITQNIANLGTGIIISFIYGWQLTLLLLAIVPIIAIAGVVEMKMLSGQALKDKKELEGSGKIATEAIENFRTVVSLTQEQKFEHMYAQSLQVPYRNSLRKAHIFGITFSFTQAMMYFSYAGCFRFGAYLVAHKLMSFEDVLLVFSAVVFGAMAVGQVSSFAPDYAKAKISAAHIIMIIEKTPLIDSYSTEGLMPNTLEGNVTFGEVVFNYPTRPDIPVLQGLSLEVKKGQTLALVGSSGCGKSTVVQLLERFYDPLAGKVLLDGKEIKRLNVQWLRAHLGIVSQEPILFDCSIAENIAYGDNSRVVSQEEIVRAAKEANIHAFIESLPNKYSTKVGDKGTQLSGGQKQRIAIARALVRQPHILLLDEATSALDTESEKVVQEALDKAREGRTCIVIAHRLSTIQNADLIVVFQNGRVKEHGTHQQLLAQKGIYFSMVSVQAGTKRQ
SMILES,IC50 [3] [nM],"IC50 [5, 10] [nM]",EC50 [6] [nM],selectivity ratio at 30 min [7],further results
"O=C(NCCCN1CCOCC1)c1cnn2c(-c3ccccc3)cc(-c3ccccc3)nc12 [Compound 6, reference compound]",,,3610,,"TD50 ABCG2 [1]: >100 µM; TD50 ABCB1 [2]: 7.04 µM; IC50 ([3]; read-out: IC50 ABCG2 (efflux inhibition of JC-1 substrate), Ig-MXP3 cells over-expressing ABCG2, averages of two to four replicates, listed as reversan): 800 nM and 840 nM; EC50 ([4]; listed as reversan, read-out: CR50 ABCB1): 2200 nM; EC50 ([4]; read-out: CR50 ABCB1): 220 nM; IC50 ([5]; read-out: IC50 ABCB1 (efflux inhibition of JC-1 substrate), listed as reversan): 4400 nM and 4410 nM; EC50 ([6]; listed as reversan): 3600 nM"
"COc1ccc2c3c([nH]c2c1)[C@H](CC(C)C)N1C(=O)[C@H](CCC(=O)OC(C)(C)C)NC(=O)[C@@H]1C3 [Compound 4, reference compound]",,,,,"TD50 ABCG2 [1, 8]: 20.00 µM; TD50 ABCB1 [2, 9]: 2.84 µM"
"CN(C)C(=O)CCSC(SCCC(=O)O)c1cccc(/C=C/c2ccc3ccc(Cl)cc3n2)c1 (stereo not drawn) [Compound 5, reference compound]",> 50000,> 50000,57400,,"TD50 ABCG2 [1, 8]: 57.40 µM; TD50 ABCB1 [2, 9]: 20.40 µM; efflux inhibition activity ABCG2 ([3]; JC-1 efflux, Ig-MXP3): didn't observe any inhibition; EC50 ([4]; read-out: CR50 ABCB1): 20400 nM; efflux inhibition activity ABCB1 ([5]; JC-1 efflux, Jurkat-DNR): didn't observe any inhibition; IC50 [5, 11]: > 50000 nM"
Cc1nc2cc(-c3cccc(Cl)c3)nn2c(N2CCN(C(=O)c3ccco3)CC2)c1C [Compound 9],2650 ± 1070,8400 ± 700,170,3.2,"TD50 ABCG2 [1, 8]: 47.40 µM; TD50 ABCB1 [2, 9]: >100 µM"
COc1cccc(-c2cc3nc(-c4ccco4)cc(N4CCN(C(=O)c5ccoc5)CC4)n3n2)c1 [Compound 56],,,1000,,"TD50 ABCG2 [1]: >100 µM; TD50 ABCB1 [2]: 5.52 µM; ~Fold G2 Selective (B1/G2) [3]: 3.3 fold; IC50 [3, 12]: 2260 nM; EC50 ([4]; read-out: CR50 ABCB1): 470 nM; IC50 [5, 11]: 7400 nM"
O=C(c1ccco1)N1CCN(c2cc(-c3ccccc3)nc3cc(-c4cccc(Cl)c4)nn23)CC1 [Compound 8],,,140,,"~Fold G2 Selective (B1/G2) [3]: 6.4 fold; IC50 [3, 12]: 960 nM; EC50 ([4]; listed as SID 85240370, read-out: CR50 ABCB1): 700 nM; EC50 ([4]; read-out: CR50 ABCB1): 250 nM; IC50 [5, 11]: 6180 nM"
c1ccc(CN2CCN(c3cc(-c4ccco4)nc4cc(-c5ccccc5)nn34)CC2)cc1 [Compound 75],3070 ± 1880,8990 ± 3670,,2.9,

# Now from value to molecule, other results behind:
IC50 [3] [nM],"IC50 [5, 10] [nM]",SMILES,EC50 [6] [nM],selectivity ratio at 30 min [7],further results
5190 ± 4220,11300,Cc1ccc(-c2cc3nc(-c4ccco4)cc(N4CCN(C(=O)c5ccoc5)CC4)n3n2)cc1 [Compound 59],,2.2,
1190 ± 260,8580 ± 630,O=C(c1ccoc1)N1CCN(c2cc(-c3ccccc3)nc3cc(-c4cccc(Cl)c4)nn23)CC1 [Compound 11],,7,~Fold G2 Selective (B1/G2) [3]: 7.2 fold
760 ± 430,1310 ± 350,O=C(c1ccoc1)N1CCN(c2cc(-c3ccccc3)nc3cc(-c4ccc(Br)cc4)nn23)CC1 [Compound 33],,1.7,
1560 ± 1300,8420,O=C(c1ccoc1)N1CCN(c2cc(-c3ccco3)nc3cc(-c4cccs4)nn23)CC1 [Compound 51],,5.4,
2410 ± 520,5650 ± 110,O=C(c1ccoc1)N1CCN(c2cc(-c3ccc(F)cc3)nc3cc(-c4cccc(Cl)c4)nn23)CC1 [Compound 27],,2.3,
1140 ± 540,2170 ± 1020,COc1cccc(-c2cc(N3CCN(C(=O)c4ccoc4)CC3)n3nc(-c4cccc(Cl)c4)cc3n2)c1 [Compound 28],,1.9,
1370 ± 530,3640 ± 1470,O=C(c1ccco1)N1CCN(c2cc(-c3ccccc3)nc3cc(-c4ccc(Cl)cc4)nn23)CC1 [Compound 39],,2.7,
2370 ± 1800,4550,COc1ccc(-c2cc(N3CCN(C(=O)c4ccoc4)CC3)n3nc(-c4ccccc4)cc3n2)cc1 [Compound 45],,1.9,
